Tests used:
[1] = test system: HL-60 (Leukemia) cell line; test: Proliferation of HL-60; format: cell-based; conditions: for ratio of (IC50 of K01)/(IC50 of compound), HL-60: value in parenthesis; for IC50: Homo sapiens, HL-60, read-out: IC50 in μM HL-60 (Leukemia)
Method in brief: (§1)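 After a 24 h settling period at 37° C, each line received compound from a 3-fold serial series with DMSO capped at 0.25%. Incubation ran 96 h before CellTiter Glo reagent was added. Inhibition % = (Max − sample)/Max × 100, with Max from DMSO-treated cells.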

[2] = test system: Panc2.13 (Pancreatic) cell line; test: Proliferation of Panc2.13; format: cell-based; conditions: for ratio of (IC50 of K01)/(IC50 of compound), Panc2.13: value in parenthesis; for IC50: read-out: IC50 in μM Panc2.13 (Pancreatic)
Method in brief: as §1

[3] = test system: KP-4 (Pancreatic) cell line; test: Proliferation of KP-4; format: cell-based; conditions: Homo sapiens, KP-4, read-out: IC50 in μM KP-4 (Pancreatic)
Method in brief: as §1

C1b domain of human PKCδ = biological target: T1, C1b domain of human PKCδ (Homo sapiens, UniProt Q05655); test: Competitive 3H-PDBu binding to C1b domain of PKCδ; conditions: Ki PKCδ, 3H-PDBu competition
T1 construct: Genes encoding C1b domains of human PKCα, δ, ε, θ, and PKD1 (PKCμ) were synthesized; made in house; host or cells: E. coli BL21(DE3)
Method in brief: (§2)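 Ki derived by Cheng-Prusoff from IC50, with each protein batch's measured ^3H-PDBu Kd. Displacement of ^3H-PDBu from E. coli-produced GST-fused C1b domains or full-length human PKC was run 10 min at 37°C plus 20 min on ice, with filter capture and scintillation counting.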

C1b domain of human PKCα = biological target: T2, C1b domain of human PKCα (Homo sapiens, UniProt P17252); test: biochemical; format: binding; conditions: 3H-PDBu competition; for Ki: Ki PKCα
T2 construct: Genes encoding C1b domains of human PKCα, δ, ε, θ, and PKD1 (PKCμ) were synthesized; made in house; host or cells: E. coli BL21(DE3)
Method in brief: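 Competitive binding against 3H-PDBu tracer used recombinant GST-C1b fusion protein expressed in E. coli. Incubation ran 10 min at 37°C with shaking, then 20 min on ice, followed by filtration and scintillation counting of trapped 3H-PDBu. Affinity was derived using each protein preparation's experimentally determined Kd for 3H-PDBu.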

[4] = biological target: T3, C1b domain of human PKD1 (PKCμ) (Homo sapiens, UniProt Q15139); test: biochemical; format: binding
T3 construct: Genes encoding C1b domains of human PKCα, δ, ε, θ, and PKD1 (PKCμ) were synthesized; made in house; host or cells: E. coli BL21(DE3)
T3 sequence (Q15139 270-320 limits assumed): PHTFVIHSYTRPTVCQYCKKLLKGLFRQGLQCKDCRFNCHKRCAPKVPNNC
Method in brief: as §2

PANC1 cells = test: Sphere formation assay (cancer stemness); format: cell-based; conditions: Homo sapiens, PANC-1, read-out: concentration exhibiting at least 50% inhibition on the sphere forming efficiency
Protocol: A group of diterpenoid compounds of the present disclosure were tested to assess their effects on blocking formation of spheres from cancer cell lines such as PANC1, a K-Ras mutant pancreatic cell line. Briefly, PANC1 cells were harvested, re-suspended as single cell suspensions, counted and seeded into Ultra Low Attachment Culture 96-well plate (Corning, Cat #3474) at 100 cells/well in 100 μl of complete media (with 10% FBS) containing 2% Matrigel (Corning, Cat #354234) and DMSO or compounds. Six replicates per condition were seeded. The seeded cells were placed in the 37° C. tissue culture incubator. 10 μl of low serum containing media (with 0.1% FBS) was added to each well every week. Spheres formed after 3-4 weeks were counted. Sphere forming efficiency was expressed as percentage of # of spheres/# of cells seeded.

[5] = test system: Namalwa (Lymphoma) cell line; test: Proliferation of Namalwa; format: cell-based; conditions: for ratio of (IC50 of K01)/(IC50 of compound), Namalwa: value in parenthesis; for IC50: read-out: IC50 in μM Namalwa (Lymphoma)
Method in brief: as §1

T1 sequence (Q05655 230-280 limits assumed): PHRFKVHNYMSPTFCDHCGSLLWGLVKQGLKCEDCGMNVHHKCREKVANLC

## CC1=C[C@H]2[C@@]3(O)[C@H](C)C[C@]4(OC(=O)[C@@H](N)[C@]56C[C@H]7C[C@H](C[C@H](C7)C5)C6)[C@H]([C@@H]3C=C(CO)C[C@]2(O)C1=O)C4(C)C [Compound K101-C1347]
[1]
  ratio of (IC50 of K01)/(IC50 of compound), HL-60: 16.2
  IC50: 0.001 to 0.01 µM
[2]
  ratio of (IC50 of K01)/(IC50 of compound), Panc2.13: 71.7
  IC50: 0.01 to 0.03 µM
[3]
  IC50: 0.001 to 0.01 µM
C1b domain of human PKCδ
  Ki: < 5 nM
C1b domain of human PKCα
  Ki: 1 to 30 nM
[4]
  Ki: < 5 nM
PANC1 cells
  IC50: ≤ 50 nM
[5]
  ratio of (IC50 of K01)/(IC50 of compound), Namalwa: 18.2
  IC50: 0.001 to 0.01 µM

## CC1=C[C@H]2[C@@]3(O)[C@H](C)C[C@]4(OC(=O)[C@H](N)CCCCCCc5ccccc5)[C@H]([C@@H]3C=C(CO)C[C@]2(O)C1=O)C4(C)C [Compound K101-C134801]
[1]
  ratio of (IC50 of K01)/(IC50 of compound), HL-60: 4.43
  IC50: 0.01 to 0.03 µM
[2]
  ratio of (IC50 of K01)/(IC50 of compound), Panc2.13: 13.4
  IC50: 0.06 to 0.1 µM
[3]
  IC50: 0.03 to 0.06 µM
C1b domain of human PKCδ
  Ki: 5 to 10 nM
C1b domain of human PKCα
  Ki: 400 to 800 nM
[4]
  Ki: < 5 nM
PANC1 cells
  IC50: ≤ 150 nM
[5]
  ratio of (IC50 of K01)/(IC50 of compound), Namalwa: 4.93
  IC50: 0.01 to 0.03 µM

## CC1=C[C@H]2[C@@]3(O)[C@H](C)C[C@]4(OC(=O)[C@@H](N)CCCCCCc5ccccc5)[C@H]([C@@H]3C=C(CO)C[C@]2(O)C1=O)C4(C)C [Compound K101-C134802]
[1]
  ratio of (IC50 of K01)/(IC50 of compound), HL-60: 12.1
  IC50: 0.001 to 0.01 µM
[2]
  ratio of (IC50 of K01)/(IC50 of compound), Panc2.13: 57.3
  IC50: 0.01 to 0.03 µM
[3]
  IC50: 0.001 to 0.01 µM
C1b domain of human PKCδ
  Ki: < 5 nM
C1b domain of human PKCα
  Ki: 30 to 60 nM
[4]
  Ki: < 5 nM
PANC1 cells
  IC50: ≤ 50 nM
[5]
  ratio of (IC50 of K01)/(IC50 of compound), Namalwa: 16.1
  IC50: 0.001 to 0.01 µM

## CC1=C[C@H]2[C@@]3(O)[C@H](C)C[C@]4(OC(=O)[C@@H](N)CC5CCCCC5)[C@H]([C@@H]3C=C(CO)C[C@]2(O)C1=O)C4(C)C [Compound K101-C1327]
[1]
  ratio of (IC50 of K01)/(IC50 of compound), HL-60: 2.32
  IC50: 0.03 to 0.06 µM
[2]
  ratio of (IC50 of K01)/(IC50 of compound), Panc2.13: 7.1
  IC50: 0.1 to 0.2 µM
[3]
  IC50: 0.1 to 0.2 µM
C1b domain of human PKCδ
  Ki: < 5 nM
C1b domain of human PKCα
  Ki PKCα: E (E=>60 nM and ≤10 nM)
[4]
  Ki: < 5 nM
[5]
  ratio of (IC50 of K01)/(IC50 of compound), Namalwa: 2.03
  IC50: 0.03 to 0.06 µM

— patent US20220411362A1, “DITERPENOID COMPOUNDS THAT ACT ON PROTEIN KINASE C (PKC)” (K-Gen, Inc., priority 2019, published 2022)
